Experimental data published in patent US20030157502A1, “Chemotherapeutant screening method” (priority 1999, published 2003).
Read-outs that look alike come from different tables or passages of the source. Starred links: 1 amine or outer side, 2 acyl side, 3 side chain; linkers in the order of their positions; H or OH if unused. Positions of bridges follow the written chain, without caps; N, C: chain ends. Non-standard residues stand in square brackets, D forms with d. Residues, ends and D or L forms follow the SMILES beside them. Chains are numbered I, II in the order given. Actinocin(9to1) = Cc1c2oc3c(C)ccc(C(=O)[*:1])c3nc-2c(C(=O)[*:2])c(N)c1=O; NMeV = CN[C@H](C(=O)O)C(C)C; Sar = CNCC(=O)O

Legend:
CD95L-mRNA [1] = assay type: cell-based, human; conditions: for effect on transcription or translation of the housekeeping gene β-actin: subtoxic concentrations; for upward regulation of CD95L-mRNA: HepG2 (wt p53) cells
c-Jun [2] = assay: c-Jun immunofluorescence in primary human hepatocytes; assay type: cell-based; conditions: 5-FU 50 μg/ml for 40 hours
Description: (§1) Thereafter, the cells were either not treated (A) or treated with 5-FU (100 μg/ml) for 40 hours (B), fixed and stained as described. C+D: Human primary hepatocytes were isolated as described in Example 1 and seeded onto culture dishes. Thereafter, the cells were either not treated (C) or treated with 5-FU (50 μg/ml) for 40 hours (D), fixed and stained with an antibody specific to c-Jun.
Primary human hepatocytes were obtained by means of a 2-step perfusion technique from healthy liver tissue of patients undergoing partial liver resection. For this purpose, a cannula was introduced into a blood vessel of the removed liver tissue and it was perfused with Ca-free and Mg-free “Hank's balanced salt solution (HBSS; Gibco BRL) containing 0.5 mM EDTA and 50 mM HEPES for 15 to 20 min. […] The viability was determined by means of the trypan blue exclusion method. […]
Cultured Hep3B cells or freshly isolated human primary hepatocytes were plated onto Lab-Tek™ chamber slides (Renner GmbH, Darmstadt, Germany). […] Non-specific staining was monitored by incubation with mouse or rabbit immunoglobulins in place of the specific primary antibody or by blocking the primary antibody with the immunogenic peptide. The slides were covered with cover glasses and evaluated by means of a fluorescence microscope. […]

c-Jun [3] = assay: c-Jun immunofluorescence in Hep3B cells; assay type: cell-based, human; conditions: 5-FU 100 μg/ml for 40 hours
Description: as §1
Cultured Hep3B cells or freshly isolated human primary hepatocytes were plated onto Lab-Tek™ chamber slides (Renner GmbH, Darmstadt, Germany). Following culturing over a period of at least two days, the cells were treated with chemotherapeutic agents. Thereafter, fixation in methanol/acetone (5 min. or 10 sec. at −20° C.) was carried out. Then, the cells were initially incubated at 37° C. for 1 hour with the specific primary antibody against human c-Jun (Santa Cruz GmbH, Heidelberg, Germany), and after three wash steps using PBS, the cells were covered with fluorescein-isothiocyanate-conjugated goat anti-rabbit IgG (Dianova, Hamburg, Germany) for 1 hour. Non-specific staining was monitored by incubation with mouse or rabbit immunoglobulins in place of the specific primary antibody or by blocking the primary antibody with the immunogenic peptide. The slides were covered with cover glasses and evaluated by means of a fluorescence microscope. […]

CD95L-mRNA [4] = assay: CD95L-mRNA expression by RT-PCR in Hep3B cells; assay type: cell-based, human; conditions: Hep3B (p53 -/-) cells
CD95L promoter = CD95L promoter luciferase reporter assay in transiently transfected Hep3B cells; assay type: cell-based, human; conditions: for effect of the combination on activation of the CD95L promoter: 5-FU plus etoposide, 48 hours
Description: Every bar represents the calculated value from treated/untreated cells. The transfection efficiency in A and B was monitored by cotransfection of a renilla Luciferase construct controlled by a basal promoter. […] B: Titration of 5-FU. Hep3B cells were transiently transfected with the −36/+100 promoter construct. […] The cells were lyzed and the luciferase activity was determined.
The cotransfected cells were then treated with 100 μg/ml 5-FU for 48 hours or not treated. The transfection efficiency was normalized by either cotransfection of an expression vector for chloramphenicol transferase (CAT) or renilla luciferase (both controlled by a basal promoter). The luciferase activity was measured using the “dual luciferase” assay (Promega company) in accordance with the manufacturer's instructions, and the CAT activity was determined by means of a commercially available CAT ELISA. Average values (with standard deviation) from different independent experiments are shown. B: “Dual luciferase” assay with Hep3B cells cotransfected with the described CD95L promoter construct and a renilla-luciferase expression vector (as a control for the transfection efficiency). The cells were collected at the indicated times. In addition, the protein content of the transfected cells was determined. The data are average values (with standard deviation) from three samples of a representative experiment. Four independent experiments were carried out.
Hep3B cells were transfected with the −36/+100 construct (CD95L prom wt) or the APX4 construct (mutated −36/+100 CD95L.luc; Cd95L prom mut). The transfection efficiency was monitored by cotransfection with renilla luciferase. Following transfection the cells were treated with 5-FU (100 μg/ml) for 48 hours. The luciferase activity was measured and the multiplication of induction was calculated.
One day before the transfection, the cells were plated out with a density of 0.6×10^6/9 cm Petri dishes. The medium was exchanged two hours before the transfection. The transfection was carried out by means of the method based on calcium phosphate precipitation. In summary, 5 to 40 μg DNA were diluted in 500 μl of a calcium chloride solution. The DNA/calcium chloride mixture was added drop-wise to 500 μl HBS. Precipitation was carried out at room temperature for 20 min., and then the precipitation mixture was added to the culture medium. The precipitate was allowed to stay on the cells for 12 to 24 hours. Thereafter, the cells were shock-treated using 16% glycerin in full medium for 3 min. Following three wash steps using PBS, the cells were cultured in medium supplemented with 20% FCS for at least six hours. Finally, the cells were distributed over 6-well plates, and the chemotherapeutic treatment was started for different periods.
After three wash steps in PBS, the cells were lyzed in 200 μl passive lysis buffer (Promega). Following 20 minutes of incubation at room temperature, the cells were scratched off the plates. The lyzates were subjected to two freeze/thaw cycles and then cell debris was removed by centrifugation.

HepG2 cells = assay: Apoptosis by PI exclusion and forward/side scatter (FSC/SSC); assay type: cell-based; conditions: 100 μg/ml 5-FU, after 48 hours
Description: FIG. 1: Chemotherapeutic agents effect CD95-mediated death in HepG2 cells HepG2 cells were cultured almost up to confluence and then incubated with 100 μg/ml 5-FU over the indicated periods in the presence of either an isotype-adapted control antibody or the anti-CD95L antibody NOK-1 (50 μg/ml). The same experiment was carried out with the addition of CD95-Fc (50 μg/ml). Apoptosis was determined by PI exclusion and measurement of the forward/side scatter (FSC/SSC). The data shown are average values with standard deviations from three samples.
Following the corresponding treatment, the cells were trypsinated with 1% trypsin-EDTA for 5 min., washed twice with PBS and stained using 2.5 μg/ml propidium iodide (PI; Sigma). The stain uptake was measured by means of a “FACScan” cytometer (Becton Dickinson GmbH, Heidelberg, Germany) using the “CellQuest” Software. Changes in the forward/side scatter (FSC/SSC) of the cell population were evaluated as well. For quantifying the DNA fragmentation the supernatants were centrifuged at 200×g, the cells were trypsinated and washed as indicated above. […] The nuclei were then analyzed as regards their DNA content by means of flow cytometry (Nicoletti et al., Journal of Immunological Methods 139 (1991), 271). […]

SKW6.4 cells = assay: 51Cr release assay, Hep3B effector cells and SKW6.4 target cells; assay type: cell-based, human; conditions: Hep3B treated with 100 μg/ml 5-FU 48 hours before incubation
Description: FIG. 3: The treatment with chemotherapeutic agents results in an upward regulation of functional CD95L A ^51Cr release assay with Hep3B cells as effectors and SKW6.4 cells as target was used. Hep3B cells were cultured in 96-well plates treated with 5-FU. After 48 hours, the chemotherapeutic agents were removed from the culture medium and ^51Cr-labeled SKW6.4 cells were added with either a control antibody or the anti-CD95L antibody NOK-1. Following incubation overnight, the supernatants were measured in a gamma counter. Relative lysis was calculated as indicated in Example 1. E/T is the ratio between effector cells and target cells. Every series of concentration was carried out threefold. The diagram represents an experiment from a series of independent experiments having the same result.
CD95L-mediated cytotoxicity induced by chemotherapy was studied. Hep3B cells (effector cells) were seeded into 96-well plates and treated with chemotherapeutic agents for 48 hours. […] After 12 to 16 hours, 100 μl supernatant of each well were collected and measured in a gamma counter. The specific lysis was calculated in accordance with formula L=(E−S)/(T−S), E representing the gamma counts of the unknown sample, S being the spontaneous lysis of the labeled target cells in the medium without effector cells, and T representing the maximum release of the target cells kept in 2 N HCl. […]

Molecule | effect on the upward regulation of CD95L following treatment with chemotherapeutic agents (CD95L-mRNA [1]) | effect on transcription or translation of the housekeeping gene β-actin (CD95L-mRNA [1]) | upward regulation of CD95L-mRNA (CD95L-mRNA [1]) | upward regulation of CD95L-mRNA (CD95L-mRNA [4]) | effect of the combination on activation of the CD95L promoter (CD95L promoter; Hep3B cells) | other results
Cc1c2oc3c(C)ccc(C(=O)N[C@@H]4C(=O)N[C@H](C(C)C)C(=O)N5CCC[C@H]5C(=O)N(C)CC(=O)N(C)[C@@H](C(C)C)C(=O)O[C@@H]4C)c3nc-2c(C(=O)N[C@@H]2C(=O)N[C@H](C(C)C)C(=O)N3CCC[C@H]3C(=O)N(C)CC(=O)N(C)[C@@H](C(C)C)C(=O)O[C@@H]2C)c(N)c1=O [actinomycin C1] (I: T[dV]P[Sar][NMeV] / II: T[dV]P[Sar][NMeV]; ester I:1-I:C, II:1-II:C; linker I:N-II:N via Actinocin(9to1)) | reduced efficiently | no effect | – | – | – | –
C[C@@H]1C[C@@H]([C@H](O)CC2CC(=O)NC(=O)C2)C(=O)[C@@H](C)C1 [cycloheximide] | reduced efficiently | no effect | – | – | – | –
O=c1[nH]cc(F)c(=O)[nH]1 [5-FU, 5-fluorouracil] | – | – | regulate upward | regulate upward | synergistic effect | AP-1 (c-Jun) nuclear staining (c-Jun [2]): intensive nuclear reactivity; AP-1 (c-Jun) nuclear staining (c-Jun [3]): widely accumulated AP-1 within the nucleus; inducibility of CD95L promoter luciferase constructs (-1204/+100 to -36/+100) (CD95L promoter; Hep3B cells transiently transfected): inducible; inducibility of the AP-1-mutated -36/+100 reporter construct (CD95L promoter; Hep3B cells, 100 μg/ml 5-FU, 48-hour treatment): almost fully eliminated; time of maximum activation of the -36/+100 construct (CD95L promoter; Hep3B cells, -36/+100 luciferase construct): 64 h; response of the -36/+19 construct (lacks AP-1 site) (CD95L promoter; Hep3B cells, incubation up to 64 hours): did not respond; apoptosis rate (HepG2 cells): 43%; killing of CD95-bearing SKW6.4 cells by treated Hep3B cells (SKW6.4 cells): significant killing
COc1cc([C@@H]2c3cc4c(cc3[C@@H](O[C@@H]3O[C@@H]5CO[C@@H](C)O[C@H]5[C@H](O)[C@H]3O)[C@H]3COC(=O)[C@H]23)OCO4)cc(OC)c1O [etoposide] | – | – | regulate upward | regulate upward | synergistic effect | –
bleomycin | – | – | regulated upward | regulated upward | – | –
